According to patent US20240317748A1, “CARBONYL SUBSTITUTED DIAZASPIRO COMPOUNDS AND ITS USE” (BIONOVA PHARMACEUTICALS (SHANGHAI) LIMITED, priority 2021, published 2024):

Assays:
[1] = molecular target: T1, Menin-MLL1 (Homo sapiens, UniProt O00255); test: Menin-MLL1 inhibition assay (fluorescence polarization, Menin protein + FAM-MLL peptide); assay type: binding; conditions: Menin (2-610) isoform 2, FAM-labelled MLL peptide, mP readout; read-out: Biochemical assay Menin-MLL1 IC50
T1 construct: Menin (2-610) isform2; purchased ChemPartner 2020111101
T1 sequence (O00255 2-610): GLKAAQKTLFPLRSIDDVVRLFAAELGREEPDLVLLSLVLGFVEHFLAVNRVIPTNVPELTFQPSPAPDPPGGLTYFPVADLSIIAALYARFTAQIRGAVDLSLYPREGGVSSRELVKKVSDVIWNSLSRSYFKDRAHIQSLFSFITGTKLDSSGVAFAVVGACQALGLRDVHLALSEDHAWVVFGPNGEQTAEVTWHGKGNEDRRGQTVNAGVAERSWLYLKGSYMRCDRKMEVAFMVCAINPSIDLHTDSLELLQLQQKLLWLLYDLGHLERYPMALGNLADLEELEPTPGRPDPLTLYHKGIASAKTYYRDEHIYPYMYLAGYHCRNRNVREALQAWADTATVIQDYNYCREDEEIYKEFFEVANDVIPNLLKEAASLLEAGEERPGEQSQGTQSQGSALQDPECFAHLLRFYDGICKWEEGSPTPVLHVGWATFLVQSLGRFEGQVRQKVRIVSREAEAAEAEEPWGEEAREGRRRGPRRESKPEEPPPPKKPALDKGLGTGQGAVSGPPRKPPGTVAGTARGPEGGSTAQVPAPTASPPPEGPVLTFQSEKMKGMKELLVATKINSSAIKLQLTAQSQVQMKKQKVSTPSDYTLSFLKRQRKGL
Procedure: 1× assay bu9ffer (Tris 7.5 50 mM, NaCl 50 mM, DTT 1 mM, Tween-20 0.01%) was prepared and test compounds solution (10 mM in DMSO, Sigma, Cat. No. 34869) were transferred to assay plate (384-well plate, Perkin Elmer, Cat. No. 6007279) by Echo. The final fraction of DMSO is 1%. 20 nM of Menin protein (Menin (2-610) isform2, ChemPartner, Cat. No. 2020111101) in 1× assay buffer was added to prepare 2× enzyme solution. Then 10 nM of MLL-peptide (Ac-SRWRFPARPGTGRR-Ahx-Ahx-K(FAM)-NH2, GL Biochem (Shanghai)), Cat. No. 833831/202009220104) in 1× assay buffer was added to prepare 2× substrate solution. 10 μL of 2× enzyme solution was transferred to assay plate or 10 μL of 1× assay buffer for low control group. 10 μL of 2× substrate solution was added to each well to start reaction. mP data on Envision (Ex480/Em535(s), Em535(p)) was collected.
Compound potencies were determined by first calculating % inhibition at each compound concentration according to equation 1:
Inhibition %=(Max−Signal)/(Max−Min)*100 (Equation 1)
Y=Bottom+(Top-Bottom)/(1+(IC50/X)[…]), where Y is % inhibition and X is compound concentration (Equation 2)

[2] = test system: MV-4-11 cells; test: Cell proliferation assay (CellTiter-Glo), MV-4-11; assay type: cell-based, human; conditions: Homo sapiens, MV4-11, 96 h; MV-4-11 (MLL-AF4), 4 days incubation; read-out: Cell antiproliferation assay MV-4-11 IC50
Procedure: (§1) The antiproliferative activity of test compounds was assessed in human leukemia cell lines. The cell line MV4-11, MOLM13 and OCI-AML3, which expresses the MLL fusion protein MLL-AF4, MLL-AF9 and carry the NPM1c gene mutation, respectively, were tested. HL-60 was used as a control cell line containing two MLL wildtype alleles in order to exclude compounds that display general cytotoxic effect. MV4-11 cells were cultured in IMDM supplemented with 10% FBS, MOLM13 and OCI-AML3 cells were cultured in RPMI1640 supplemented with 20% FBS, and HL-60 cells were cultured in IMDM supplemented with 20% FBS. Corresponding cells (MV4-11, MOLM13, OCI-AML3 or HL-60 cell line) were seeded in 100 uL medium per well in 96-well plate (white wall with clear bottom, tissue culture treated, Corning, Cat. No. CLS3903; Lot.No. 30419025). Plates were placed in the CO2 incubator overnight. Compounds solution (2 mM starting, 4-fold serial dilution) were prepared and added to the wells containing 100 μL of the culture medium with HPD300 according to the plate map and centrifuge at 1000 rpm for 1 minutes (200-fold dilution totally). MV4-11, MOLM13, OCI-AML3 and HL-60 cells were incubated with the compounds for 4, 12, 5 and 4 days, respectively, under 5% CO2 at 37° C., respectively. 100 μL of CellTiter-Glo reagent (Promega, Cat. No. G7573, Lot. No. 0000416710) was added to the assay plate by Multidrop Combi instrument, contents were mixed for 10 minutes on an orbital shaker to induce cell lysis. After incubation at room temperature for 10 mins, clear bottom with white back seal was pasted and luminescence with Envision was read.

[3] = Liver microsome stability study; assay type: in vitro ADME; conditions: human liver microsomes 0.5 mg/mL, 1 μM compound, NADPH, 37° C.; read-out: Human liver microsome T1/2
Procedure: Studies were carried out in liver microsomes (Corning, 0.5 mg/mL). Stock solutions were prepared at 10 mM in DMSO for the test compounds. Aliquots of the stock solutions were diluted to 0.5 mM with acetonitrile, and then further diluted upon the addition of liver microsomes/buffer to 1.5 μM. An aliquot of 30 μL of 1.5 μM solutions was mixed with 15 μL of 6 mM NADPH and the final concentration of NADPH was 2 mM, which had been pre-warmed to 37° C. Test compounds and Ketanserin final concentrations were 1 μM. The plates were kept in a 37° C. water bath for the duration of the experiment. At each time point (0, 5, 15, 30, 45 minutes), 135 μL of acetonitrile was added into corresponding wells. After the final time point was quenched by acetonitrile, the assay plates were shaken at the vibrator (IKA, MTS 2/4) for 10 min (600 rpm/min) and then centrifuged at 5,594 g for 15 min (Thermo Multifuge×3R). Aliquots of the supernatant were taken, diluted 1:1 into distilled water, and analyzed by LC-MS/MS. The peak area response ratio to internal standard (PARR) of the compounds at 5, 15, 30, 45 minutes was compared to the PARR at time 0 to determine the percent of test compound remaining at each time point. Half-lives were calculated using Excel software, fitting to a single-phase exponential decay equation.

[4] = test system: OCI-AML3 cells; test: Cell proliferation assay (CellTiter-Glo), OCI-AML3; assay type: cell-based, human; conditions: Homo sapiens, OCI-AML-3, 120 h; OCI-AML3 (NPM1c mutation), 5 days incubation; read-out: Cell antiproliferation assay OCI-AML3 IC50
Procedure: as §1

[5] = test system: MOLM13 cells; test: Cell proliferation assay (CellTiter-Glo), MOLM13; assay type: cell-based, human; conditions: Homo sapiens, MOLM-13, 288 h; MOLM13 (MLL-AF9), 12 days incubation; read-out: Cell antiproliferation assay MOLM13 IC50
Procedure: as §1

[6] = test system: HL-60 cells; test: Cell proliferation assay (CellTiter-Glo), HL-60 control line; assay type: cell-based, human; conditions: Homo sapiens, 96 h, 4 days incubation; for IC50: HL-60 control line (MLL wildtype), read-out: Cell antiproliferation assay HL-60 IC50; for inhibition at 10 µM: HL-60 control line, read-out: HL-60 (Pct of inhibition at 10 μM)
Procedure: as §1

Compound	IC50 [1]	IC50 [2]	half-life at 1 μM [3]	IC50 [4]	IC50 [5]	IC50 [6]	inhibition at 10 µM [6]
CC1(C)[C@@H]2[C@@H](C(=O)N3CCC4(CC3)CN(c3ncnnc3Oc3ccc(F)cc3-c3cncnc3C3CC3)C4)NC[C@@H]21 [Example 81]	3.9 nM	7.7 nM		25.5 nM	16.6 nM	> 10000 nM	21.4%
CC(C)n1ncc(Cl)c1-c1cc(F)ccc1Oc1cncnc1N1CC2(CCN(C(=O)[C@@H]3C[C@@H](F)CN3)CC2)C1 [Example 58]	3.5 nM	27.1 nM				> 10000 nM	-4.5%
CC(C)N(CCO)C(=O)c1cc(F)ccc1Oc1cncnc1N1CC2(CCN(C(=O)[C@@H]3C[C@@H](F)CN3)CC2)C1 [Example 49]	3.6 nM	57.3 nM				> 10000 nM	-8.4%
N#Cc1ccc(-c2cc(F)ccc2Oc2nncnc2N2CC3(CCN(C(=O)[C@H]4NC[C@@H]5C[C@@H]54)CC3)C2)c(C2CC2)c1 [Example 78]	2.9 nM	6.5 nM		28.1 nM	14.2 nM	> 10000 nM	40%
O=C([C@H]1NC[C@@H]2C[C@@H]21)N1CCC2(CC1)CN(c1ncnnc1Oc1ccc(F)cc1-c1cncnc1C1CC1)C2 [Example 80]	4.3 nM	39 nM				> 10000 nM	0%
N#Cc1ccc(-c2cc(F)ccc2Oc2nncnc2N2CC3(CCN(C(=O)[C@@H]4C[C@@H](F)CN4)CC3)C2)c(C2CC2)c1 [Example 67]	2.8 nM	20.5 nM			61.1 nM	> 10000 nM	23.8%
N#Cc1ccc(-c2cc(F)ccc2Oc2nncnc2N2CC3(CCN(C(=O)[C@H]4NC[C@@H]5CCC[C@@H]54)CC3)C2)c(C2CC2)n1 [Example 90]	2.8 nM	2.6 nM			6.1 nM		
CCN(C(=O)c1cc(F)ccc1Oc1cncnc1N1CC2(CCN(C(=O)[C@@H]3C[C@@H](C)CN3)CC2)C1)C(C)C [Example 47]	3.7 nM	15.9 nM				> 10000 nM	-10.6%
CCN(C(=O)c1cc(F)ccc1Oc1cncnc1N1CC2(CCN(C(=O)[C@H]3NC[C@@H]4C[C@@H]43)CC2)C1)C(C)C [Example 34]	4.1 nM	18 nM				> 10000 nM	-12.2%
C[C@H]1CCN[C@@H]1C(=O)N1CCC2(CC1)CN(c1ncnnc1Oc1ccc(F)cc1-c1ccc(C#N)cc1C1CC1)C2 [Example 79]	9.9 nM	5.9 nM		25.9 nM	15.6 nM	> 10000 nM	33.8%
O=C([C@@H]1C[C@@H](F)CN1)N1CCC2(CC1)CN(c1ncncc1Oc1ccc(F)cc1C(=O)N1C3CCC1COC3)C2 [Example 59]	5.5 nM	159 nM					

Further lines, with some results ahead:

IC50 [1]	IC50 [2]	half-life at 1 μM [3]	IC50 [4]	IC50 [5]	IC50 [6]	Compound	inhibition at 10 µM [6]
4.9 nM	41.6 nM	1.1 h				CCN(C(=O)c1cc(F)ccc1Oc1nncnc1N1CC2(CCN(C(=O)[C@@H]3C[C@H](C)CN3)CC2)C1)C(C)C [Example 87]	
5.5 nM	76.7 nM				> 10000 nM	CCN(C(=O)c1cc(F)ccc1Oc1nncnc1N1CC2(CCN(C(=O)[C@H]3NCc4ccccc43)CC2)C1)C(C)C [Example 85]	-2.8%
1.9 nM	9.6 nM			20.2 nM	> 10000 nM	CC(C)N(C(=O)c1cc(F)ccc1Oc1nncnc1N1CC2(CCN(C(=O)[C@H]3NCC[C@@H]3C)CC2)C1)C(C)C [Example 64]	11.2%
3.6 nM	76 nM		282 nM	199 nM	> 10000 nM	CC[C@@H]1[C@@H](C(=O)N2CCC3(CC2)CN(c2ncnnc2Oc2ccc(F)cc2C(=O)N(CC)C(C)C)C3)NC[C@@H]1F [Example 86]	10.8%
4.6 nM	9.5 nM		52.7 nM	49.5 nM	> 10000 nM	CC[C@H]1CCN[C@@H]1C(=O)N1CCC2(CC1)CN(c1ncnnc1Oc1ccc(F)cc1C(=O)N(CC)C(C)C)C2 [Example 70]	1%
3.7 nM	16.8 nM		132 nM	68.3 nM	> 10000 nM	CC(C)N(C(=O)c1cc(F)ccc1Oc1nncnc1N1CC2(CCN(C(=O)[C@@H]3C[C@@H](F)CN3)CC2)C1)C(C)C [Example 56]	-12.2%
3.2 nM	24.2 nM		102 nM	68.6 nM	> 10000 nM	CCN(C(=O)c1cc(F)ccc1Oc1nncnc1N1CC2(CCN(C(=O)[C@H]3NCC[C@@H]3CF)CC2)C1)C(C)C [Example 88]	11.4%
3.6 nM	7.7 nM		31.4 nM	23.7 nM	> 10000 nM	CCN(C(=O)c1cc(F)ccc1Oc1cncnc1N1CC2(CCN(C(=O)[C@H]3NCC[C@@H]3C)CC2)C1)C(C)C [Example 41]	-22.2%
5.5 nM	332 nM					CCN(C(=O)c1cc(F)ccc1Oc1cncnc1N1CC2(CCN(C(=O)[C@H]3NCC[C@@H]3O)CC2)C1)C(C)C [Example 8]	
